In the supplement of paper PMC10307832:

Compound: COC1=CC=C(C=C1)COC2=C(C=C(C=C2)CC3=CN=C(N=C3N)N)OC [GW-2580] + NC(=O)Nc1cc(-c2cccc(F)c2)sc1C(=O)N[C@H]1CCCNC1 [AZD7762] (partner 0.2 µM)
Assay: relative viability (nuclei count vs DMSO), 5 days (fraction); higher = more cells survive
Outline: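 The day after seeding in 1536-well plates, lung cancer cell lines were treated by pin tool with a single drug, or with a fixed anchor-drug dose together with five library-drug doses (not always all listed) in √10 steps. After 5 days, a combined fix-and-stain solution (final 0.05% Triton X-100, 1% formaldehyde, 1 ug/ml Hoechst) was added. Nuclei counted on 4× images gave relative viability as treated counts over vehicle counts, reported as the median of duplicate plates.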

Cell Line | relative viability (first compound 0.08 µM) | relative viability (first compound 0.8 µM) | relative viability (first compound 2.53 µM) | relative viability (first compound 8 µM)
201T | 0.575 | 0.579 | 0.583 | 0.627
A-427 | 0.753 | 0.668 | 0.568 | 0.627
ABC-1 | 0.836 | 0.941 | 0.717 | 0.829
BEN | 0.642 | 0.809 | 0.599 | 0.751
CAL-12T | 0.639 | 0.737 | 0.602 | 0.594
ChaGo-K-1 | 0.933 | 0.887 | 0.839 | 0.878
EKVX | 0.7 | 0.777 | 0.644 | 0.804
EMC-BAC-2 | 1.15 | 1.33 | – | 1.01
EPLC-272H | 0.221 | 0.315 | – | 0.297
H3255 | 0.876 | 1.22 | 0.817 | 0.758
HARA | 0.302 | 0.252 | 0.294 | 0.221
HCC-15 | 1.02 | 1.44 | 1.21 | 1.39
HCC-44 | 0.994 | 1 | 1.03 | 0.999
HCC-78 | 0.637 | 0.663 | 0.564 | 0.589
HCC-366 | 0.359 | 0.317 | 0.27 | 0.142
HCC-827 | 0.207 | 0.244 | 0.201 | 0.214
HOP-62 | 0.664 | 0.74 | 0.571 | 0.424
LC-2-ad | 0.866 | 0.948 | 0.826 | 0.873
LCLC-97TM1 | 0.2 | 0.285 | 0.281 | 0.212
LCLC-103H | 0.884 | 0.838 | 0.648 | 0.716
LK-2 | 0.44 | 0.681 | 0.269 | 0.284

Cell Line | relative viability (first compound 0.08 µM) | relative viability (first compound 0.8 µM) | relative viability (first compound 2.53 µM) | relative viability (first compound 8 µM)
LOU-NH91 | 0.862 | 0.677 | 0.743 | 0.794
LU99A | 0.509 | 0.315 | 0.267 | 0.281
LXF-289 | 1.17 | 1.2 | 1.07 | 1.06
NCI-H23 | 0.264 | 0.21 | 0.243 | 0.179
NCI-H322M | 0.508 | 0.706 | 0.598 | 0.531
NCI-H358 | 0.588 | 0.604 | 0.516 | 0.363
NCI-H441 | 1.13 | 1.26 | 1.06 | 1.08
NCI-H460 | 0.595 | 0.714 | 0.383 | 0.492
NCI-H522 | 0.903 | 0.806 | 0.873 | 0.872
NCI-H596 | 1.1 | 1.18 | 1.19 | 1.14
NCI-H647 | 0.567 | 0.621 | 0.326 | 0.405
NCI-H650 | 0.884 | 1.28 | 0.869 | 0.982
NCI-H727 | 0.461 | 0.732 | 0.576 | 0.432
NCI-H838 | 0.976 | 0.998 | 0.92 | 0.986
NCI-H1355 | 0.807 | 0.767 | 0.566 | 0.676
NCI-H1395 | 0.421 | 0.377 | 0.422 | 0.416
NCI-H1437 | 1.11 | 1.09 | 1.04 | 0.995
NCI-H1648 | 0.713 | – | 0.778 | 0.583
NCI-H1651 | 0.452 | 0.53 | 0.535 | 0.455
NCI-H1666 | 0.824 | 1.1 | 0.852 | 0.826
NCI-H1703 | 0.115 | 0.128 | 0.122 | 0.108

Cell Line | relative viability (first compound 0.08 µM) | relative viability (first compound 0.8 µM) | relative viability (first compound 2.53 µM) | relative viability (first compound 8 µM)
NCI-H1734 | 0.543 | 0.558 | 0.481 | 0.568
NCI-H1755 | 0.483 | 0.486 | 0.448 | 0.405
NCI-H1792 | 0.681 | 0.712 | 0.63 | 0.697
NCI-H1793 | 0.587 | 0.382 | 0.266 | 0.323
NCI-H1915 | 0.772 | 0.708 | 0.692 | 0.743
NCI-H1944 | 0.572 | 0.498 | 0.485 | 0.452
NCI-H1975 | 0.829 | 0.805 | 0.598 | 0.815
NCI-H1993 | 0.851 | 0.772 | 0.687 | 0.868
NCI-H2085 | 1.14 | 1.14 | 0.989 | 0.919
NCI-H2087 | 1.33 | 1.4 | 1.12 | 0.937
NCI-H2126 | 1.06 | 1.02 | 0.942 | 1.03
NCI-H2170 | 0.982 | 0.864 | 0.723 | 0.837
NCI-H2342 | 0.585 | 0.481 | 0.497 | 0.444
NCI-H2347 | 0.852 | 0.855 | 0.636 | 0.776
NCI-H2405 | 0.793 | 0.712 | 0.703 | 0.581
NCI-H3122 | 1.01 | 1.02 | 1.06 | 1
PC-3 [JPC-3] | 0.732 | 1.09 | 0.897 | 0.781
PC-14 | 0.47 | 0.484 | 0.271 | 0.396
RERF-LC-KJ | 1.11 | 1.25 | 0.825 | 0.913
SW 900 | 0.68 | 0.616 | 0.574 | 0.557
